This passage reports IC50 and inhibition results from patent publication US20240417406A1, “NITROGEN-CONTAINING TRICYCLIC COMPOUND AND PHARMACEUTICAL USE THEREOF” (JAPAN TOBACCO INC., priority 2021, published 2024).

Some results are limits rather than exact numbers.

The first assay deals with human PDHK2 (hPDHK2) (Homo sapiens (Human), UniProt Q15119). As to the kind of experiment: Inhibitory action of PDHK2 activity (PDH/hPDHK2 complex, residual PDH activity by NADH absorbance at 340 nm). Type of assay: biochemical. Conditions: FLAG-tagged recombinant hPDHK2 with porcine heart PDH complex; PDHK reaction 45 min at room temperature. The method, then: In the case of human PDHK2 (hPDHK2, NCBI Reference Database Accession number NM_002611.4), modified hPDHK2 cDNA wherein FLAG-Tag sequence was added to the N terminal of hPDHK2 cDNA clone (pReceiver-M01/PDK2-GeneCopoeia) as the base was prepared by polymerase chain reaction (PCR) and ligated to the NdeI/EcoRI site of pET-17b vector (Merck KGaA, Catalog Number 69663-3). The recombinant construct was transformed into Escherichia coli DH5a. The recombinant clones were identified, and plasmid DNA was isolated and subjected to the DNA sequence analysis. One clone which had the expected nucleic acid sequence was selected for expression work.
For expression of hPDHK2 activity, Escherichia coli strain BL21(DE3) cells (Merck KGaA, Catalog Number 69450-4) were transformed with the pET17b vector containing modified hPDHK2 cDNA. The Escherichia coli were grown to an optical density 0.6 ([…]) at 30° C. Protein expression was induced by the addition of 500 μmol/L isopropyl-β-thiogalactopyranoside. The Escherichia coli were cultured at 20° C. for 17 to for 18 hr and harvested by centrifugation. The harvested Escherichia coli was resuspended in a suspension buffer (20 mmol/L HEPES-NaOH, 500 mmol/L sodium chloride, 1% ethylene glycol, 0.1% Pluronic (registered trademark) F-68 (pH 8.0), cOmplete, EDTA-free (Roche) (pH 8.0)), and disrupted by a microfluidizer M-110H (MIZUHO INDUSTRIAL CO., LTD.). The precipitate was removed by centrifugation and the supernatant was added to DDDDK-tagged Protein PURIFICATION GEL (MEDICAL & BIOLOGICAL LABORATORIES CO., LTD., Code No. 3329). DDDDK-tagged Protein PURIFICATION GEL was washed with a washing buffer (20 mmol/L HEPES-NaOH, 500 mmol/L sodium chloride, 1% ethylene glycol, 0.1% Pluronic F-68 (pH 8.0)) and the bound protein was eluted with elution buffer 1 (20 mmol/L HEPES-NaOH, 100 μg/mL peptide (amino acid sequence DYKDDDDK) (SEQ ID NO: 1), 500 mmol/L sodium chloride, 1% ethylene glycol, 0.1% Pluronic F-68 (pH 8.0)). The eluted fractions containing FLAG-Tagged protein were pooled, concentrated by an ultrafiltration method, added to a gel filtration column (HiLoad 26/60 Superdex 200 (GE Healthcare Life Sciences, Code No. 17-1070-01)), and eluted with elution buffer 2 (20 mmol/L HEPES-NaOH, 150 mmol/L sodium chloride, 0.5 mmol/L ethylenediaminetetraacetic acid (EDTA), 1% ethylene glycol, 0.1% Pluronic F-68 (pH 8.0)). The eluted fractions were pooled and preserved at −80° C.
PDH (porcine heart PDH complex, Sigma P7032) and 0.5 μg/mL hPDHK2 were mixed in an assay buffer (50 mmol/L 3-morpholinopropanesulfonic acid (pH 7.0), 20 mmol/L dipotassium hydrogen phosphate, 60 mmol/L potassium chloride, 2 mmol/L magnesium chloride, 0.4 mmol/L EDTA, 0.2% poloxamer, 2 mmol/L dithiothreitol) so that the final concentration of PDH was 0.025 U/mL, and the mixture was incubated at 4° C. overnight to obtain a PDH/hPDHK2 complex solution.
PDH was mixed with the assay buffer so that the final concentration was 0.025 U/mL, and the mixture was incubated at 4° C. overnight to prepare a PDH solution.
The test compounds were diluted with DMSO. […] DMSO (1.5 μL) was added to control wells instead of test compound. In addition, DMSO (1.5 μL) was added to blank wells instead of the test compound, and PDH solution was added instead of the PDH/hPDHK2 complex solution. To measure an inhibitory action of the test compound on the PDHK activity inherent in the PDH solution, a test compound was added and the PDH solution instead of the PDH/hPDHK2 complex solution was added to a blank+test compound well.
Then, 10 μL of substrates (5 mmol/L sodium pyruvate, 5 mmol/L Coenzyme A, 12 mmol/L NAD, 5 mmol/L thiamine pyrophosphate, diluted with assay buffer) were added. The mixture was incubated at room temperature for 90 min, and the residual PDH activity was measured.
The absorbance of each well at 340 nm was measured using a microplate reader to detect NADH produced by the PDH reaction. […]
In the case of `C[C@H]1Cn2nc(C3(F)CC3)cc2-c2cnnc([C@@](C)(O)C(F)(F)F)c21` (racemic) [Example 101, (R)-1,1,1-trifluoro-2-[(R)-9-(1-fluorocyclopropyl)-5-methyl-5,6-dihydropyrazolo[1′,5′:1,2]pyrido[3,4-d]pyridazin-4-yl]propan-2-ol and (S)-1,1,1-trifluoro-2-[(S)-9-(1-fluorocyclopropyl)-5-methyl-5,6-dihydropyrazolo[1′,5′:1,2]pyrido[3,4-d]pyridazin-4-yl]propan-2-ol], the IC50 came out at 29.2 nM. Still for that read-out and setting: then `COC(=O)C12CCC(c3cc4n(n3)C[C@H](C)c3c-4cnnc3[C@@](C)(O)C(F)(F)F)(CC1)CC2` (racemic) [Example 102, methyl 4-[(R)-5-methyl-4-((R)-1,1,1-trifluoro-2-hydroxypropan-2-yl)-5,6-dihydropyrazolo[1′,5′:1,2]pyrido[3,4-d]pyridazin-9-yl]bicyclo[2.2.2]octane-1-carboxylate and methyl 4-[(S)-5-methyl-4-((S)-1,1,1-trifluoro-2-hydroxypropan-2-yl)-5,6-dihydropyrazolo[1′,5′:1,2]pyrido[3,4-d]pyridazin-9-yl]bicyclo[2.2.2]octane-1-carboxylate], with over 100 nM. With `C[C@H]1Cn2nc(C34CCC(C#N)(CC3)CC4)cc2-c2cnnc([C@@](C)(O)C(F)(F)F)c21` (racemic) [Example 103, 4-[(R)-5-methyl-4-((R)-1,1,1-trifluoro-2-hydroxypropan-2-yl)-5,6-dihydropyrazolo[1′,5′:1,2]pyrido[3,4-d]pyridazin-9-yl]bicyclo[2.2.2]octane-1-carbonitrile and 4-[(S)-5-methyl-4-((S)-1,1,1-trifluoro-2-hydroxypropan-2-yl)-5,6-dihydropyrazolo[1′,5′:1,2]pyrido[3,4-d]pyridazin-9-yl]bicyclo[2.2.2]octane-1-carbonitrile], the IC50 was determined as 24.3 nM. The same measure, in the same setting: then `C[C@H]1Cn2nc(C34CC(C#N)(C3)C4)cc2-c2cnnc([C@@](C)(O)C(F)(F)F)c21` (racemic) [Example 104, 3-[(R)-5-methyl-4-((R)-1,1,1-trifluoro-2-hydroxypropan-2-yl)-5,6-dihydropyrazolo[1′,5′:1,2]pyrido[3,4-d]pyridazin-9-yl]bicyclo[1.1.1]pentane-1-carbonitrile and 3-[(S)-5-methyl-4-((S)-1,1,1-trifluoro-2-hydroxypropan-2-yl)-5,6-dihydropyrazolo[1′,5′:1,2]pyrido[3,4-d]pyridazin-9-yl]bicyclo[1.1.1]pentane-1-carbonitrile], with 36.9 nM; and `C[C@H]1Cc2c(cnn2C2CC(C#N)C2)-c2onc([C@@](C)(O)C(F)(F)F)c21` (stereo in doubt) [Example 26], with 18.2 nM; and `C[C@H]1Cc2nn(C3CC(C#N)C3)cc2-c2onc([C@@](C)(O)C(F)(F)F)c21` (stereo in doubt) [Example 27], with 31.5 nM. On the same count and under the same terms, then `C[C@H]1Cc2c(cnn2C2CC(C#N)C2)-c2onc([C@@](C)(O)C(F)(F)F)c21` (stereo in doubt) [Example 29], with 23.6 nM. As for `C[C@H]1Cc2nn(C3CC(C#N)C3)cc2-c2onc([C@@](C)(O)C(F)(F)F)c21` (stereo in doubt) [Example 30], the half-maximal inhibitory concentration (IC50) came to 21.2 nM. On the same count and under the same terms, then `C[C@H]1Cc2c(cnn2-c2ccccc2)-c2cnc(C(C)(O)C(F)(F)F)n21` (stereo in doubt) [Example 73, (S)-1,1,1-trifluoro-2-((S)-5-methyl-3-phenyl-4,5-dihydro-3H-imidazo[1,5-a]pyrazolo[4,3-c]pyridin-7-yl)propan-2-ol], with 15.7 nM; and `C[C@H]1Cn2c(nnc2C(F)(F)F)-c2onc([C@@](C)(O)C(F)(F)F)c21` [Example 1, (R)-1,1,1-trifluoro-2-((R)-6-methyl-3-(trifluoromethyl)-5,6-dihydroisoxazolo[5,4-c][1,2,4]triazolo[4,3-a]pyridin-7-yl)propan-2-ol], with 24.3 nM; and `C[C@H]1Cn2c(nnc2C2(C(F)(F)F)CC2)-c2onc([C@@](C)(O)C(F)(F)F)c21` [Example 2], with 19.2 nM. The same measure, in the same setting: then `C[C@H]1Cn2c(nnc2C(C)(F)F)-c2onc([C@@](C)(O)C(F)(F)F)c21` [Example 3], with 20.4 nM. Consider `C[C@H]1Cn2c(nnc2C(C)(C)F)-c2onc([C@@](C)(O)C(F)(F)F)c21` [Example 4], for which the 50% inhibitory concentration (IC50) was 10.9 nM. As for `C[C@H]1Cn2c(nnc2C2CC2)-c2onc([C@@](C)(O)C(F)(F)F)c21` [Example 5], the IC50 was 10.6 nM.

Turning to `Cc1nnc2n1C[C@H](C)c1c([C@@](C)(O)C(F)(F)F)noc1-2` [Example 6], the IC50 was found to be 11.7 nM. Still for that read-out and setting: then `C[C@H]1Cn2c(-c3ccc(F)cc3)nnc2-c2onc([C@@](C)(O)C(F)(F)F)c21` [Example 7], with 9.2 nM; and `C[C@H]1Cn2c(nnc2C2(F)CC2)-c2onc([C@@](C)(O)C(F)(F)F)c21` [Example 8], with 11.7 nM; and `C[C@H]1Cn2c(nnc2C23CC(C(F)(F)F)(C2)C3)-c2onc([C@@](C)(O)C(F)(F)F)c21` [Example 9], with 9.5 nM. Same read-out and setting: then `COC(=O)C12CC(c3nnc4n3C[C@H](C)c3c([C@@](C)(O)C(F)(F)F)noc3-4)(C1)C2` [Example 10], with 9.4 nM; and `COC(=O)C12CCC(c3nnc4n3C[C@H](C)c3c([C@@](C)(O)C(F)(F)F)noc3-4)(CC1)CC2` [Example 11], with 6.6 nM. On the same count and under the same terms, then `C[C@H]1Cn2c(nnc2C23CCC(C(C)(C)O)(CC2)CC3)-c2onc([C@@](C)(O)C(F)(F)F)c21` [Example 12], with 6 nM; and `C[C@H]1Cn2c(nnc2C23CC(C(C)(C)O)(C2)C3)-c2onc([C@@](C)(O)C(F)(F)F)c21` [Example 13], with 7.5 nM; and `C[C@H]1Cc2nn(C3CC3)cc2-c2onc([C@@](C)(O)C(F)(F)F)c21` [Example 19], with 13.8 nM. As to `C[C@H]1Cn2c(nnc2C(F)F)-c2onc([C@@](C)(O)C(F)(F)F)c21` [Example 25], the IC50 was determined as 15.7 nM. The same measure, in the same setting: then `C[C@H]1Cc2[nH]ncc2-c2onc([C@@](C)(O)C(F)(F)F)c21` [Example 28, (R)-1,1,1-trifluoro-2-((S)-4-methyl-5,6-dihydro-4H-isoxazolo[5,4-e]indazol-3-yl)propan-2-ol], with 8.5 nM. The same measure, in the same setting: then `C[C@H]1Cn2nc(OCC(C)(C)O)cc2-c2onc([C@@](C)(O)C(F)(F)F)c21` [Example 31, (R)-1,1,1-trifluoro-2-((R)-8-(2-hydroxy-2-methylpropoxy)-4-methyl-4,5-dihydroisoxazolo[5,4-c]pyrazolo[1,5-a]pyridin-3-yl)propan-2-ol], with 13.7 nM. Same read-out and setting: then `C[C@H]1Cn2nc(OCC3(C#N)CC3)cc2-c2onc([C@@](C)(O)C(F)(F)F)c21` [Example 33], with 8.7 nM. For `C[C@H]1Cc2c(cnn2CCC(C)(C)O)-c2onc([C@@](C)(O)C(F)(F)F)c21` [Example 40], the 50% inhibitory concentration (IC50) was found to be 5.8 nM. On the same count and under the same terms, then `C[C@H]1Cc2nn(CCC(C)(C)O)cc2-c2onc([C@@](C)(O)C(F)(F)F)c21` [Example 41], with 9.1 nM; and `COCCOc1cc2n(n1)C[C@@H](C)c1c([C@](C)(O)C(F)(F)F)noc1-2` [Example 43], with 28.2 nM.

Still in this assay, the particulars now being: at 100.0 nM, given when the IC50 value could not be calculated; read-out: hPDHK2 inhibitory rate.
Turning to `COC(=O)C12CCC(c3cc4n(n3)C[C@H](C)c3c-4cnnc3[C@@](C)(O)C(F)(F)F)(CC1)CC2` (racemic) [Example 102, methyl 4-[(R)-5-methyl-4-((R)-1,1,1-trifluoro-2-hydroxypropan-2-yl)-5,6-dihydropyrazolo[1′,5′:1,2]pyrido[3,4-d]pyridazin-9-yl]bicyclo[2.2.2]octane-1-carboxylate and methyl 4-[(S)-5-methyl-4-((S)-1,1,1-trifluoro-2-hydroxypropan-2-yl)-5,6-dihydropyrazolo[1′,5′:1,2]pyrido[3,4-d]pyridazin-9-yl]bicyclo[2.2.2]octane-1-carboxylate], the inhibition at 0.1 µM is 3%.
